The nature of data set [1]: log P by HPLC on reversed-phase column (C 18), EEC Directive 79/831 Annex V.A8. Type of data set: physicochemical. Particulars: HPLC on reversed-phase column (C 18); 40° C.; 0.1% aqueous formic acid and acetonitrile; linear gradient 10% to 90% acetonitrile. The essentials: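 Gradient elution (10% to 90% acetonitrile, 0.1% aqueous formic acid) at 40° C; log P interpolated linearly between flanking alkan-2-one standards (3 to 16 carbons).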

The subject of data set [2] is Alternaria solani. Nature of the data set: In vivo preventive test on Alternaria solani (tomato). Particulars: 500 ppm of active ingredient, evaluated 7 days after inoculation. The essentials: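 Young tomato plants were sprayed preventively with compound in DMF/alkylarylpolyglycolether diluted in water, then inoculated one day later with A. solani spores. Incubation was 1 day at about 22 °C and 100% RH, then about 20 °C and 96% RH. Efficacy was scored 7 days after inoculation (0% = untreated control, 100% = no disease).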

In data set [3] the test system is Pyrenophora teres. Nature of the data set: In vivo preventive test on Pyrenophora teres (barley). Particulars: 500 ppm of active ingredient, evaluated 7-9 days after inoculation. In short, it runs like this:
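Young barley plants sprayed with compound in DMF/alkylaryl polyglycol ether emulsion; inoculated with P. teres spores one day later. 48 h at 22 °C, 100% humidity, then greenhouse ~20 °C, ~80% humidity; efficacy scored 7-9 days post-inoculation, 0% = untreated, 100% = no disease.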

Data set [4] concerns Septoria tritici. Put plainly: In vivo preventive test on Septoria tritici (wheat). Particulars: 500 ppm of active ingredient, evaluated 21 days after inoculation. The method, then: Solvent: 49 parts by weight of N,N-dimethylacetamide Emulsifier: 1 part by weight of alkylaryl polyglycol ether To produce a suitable preparation of active compound, 1 part by weight of active compound or active compound combination is mixed with the stated amounts of solvent and emulsifier, and the concentrate is diluted with water to the desired concentration. To test for preventive activity, young plants are sprayed with the preparation of active compound or active compound combination at the stated rate of application. After the spray coating has been dried, the plants are sprayed with a spore suspension of Septoria tritici. The plants remain for 48 hours in an incubation cabinet at approximately 20° C. and a relative atmospheric humidity of approximately 100% and afterwards for 60 hours at approximately 15° C. in a translucent incubation cabinet at a relative atmospheric humidity of approximately 100%. The plants are placed in the greenhouse at a temperature of approximately 15° C. and a relative atmospheric humidity of approximately 80%. The test is evaluated 21 days after the inoculation. 0% means an efficacy which corresponds to that of the untreated control, while an efficacy of 100% means that no disease is observed.

Data set [5] relates to Sphaerotheca fuliginea. Put plainly: In vivo preventive test on Sphaerotheca fuliginea (cucumber). Particulars: 500 ppm of active ingredient, evaluated 7 days after inoculation. The method, then: Solvent: 49 parts by weight of N,N-dimethylformamide Emulsifier: 1 part by weight of Alkylarylpolyglycolether To produce a suitable preparation of active compound, 1 part by weight of active compound is mixed with the stated amounts of solvent and emulsifier, and the concentrate is diluted with water to the desired concentration. To test for preventive activity, young plants are sprayed with the preparation of active compound at the stated rate of application. One day after this treatment, the plants are inoculated with an aqueous spore suspension of Sphaerotheca fuliginea. Then the plants are placed in a greenhouse at approximately 23° C. and a relative atmospheric humidity of approximately 70%. The test is evaluated 7 days after the inoculation. 0% means an efficacy which corresponds to that of the untreated control, while an efficacy of 100% means that no disease is observed.

Experimental findings from patent US9545105B2, “1-(heterocyclic carbonyl) piperidines” (BAYER INTELLECTUAL PROPERTY GMBH, priority 2010, dated 2017) are described below.

Structures are written as SMILES.

By logP is commonly meant a log measure of how a compound divides between an organic and an aqueous phase. Read a high logP as higher lipophilicity. As to `CCc1nn(C)c(F)c1C(=O)N1CCCCC1CCc1ccccc1` (centres unmarked) [Example 176], the logP in data set [1] was 3.25. The values for the Efficacy in data set [2], in data set [3] and in data set [4] were 90%, 95% and 70%, respectively.

As to `Cc1nn(C)c(F)c1C(=O)N1CCCCC1c1ccccc1Br` (centres unmarked) [Example 88], the logP in data set [1] worked out at 2.99. Further, the Efficacy in data set [5] is 94%; in data set [2], 95%; in data set [3] it was 95%; in data set [4], 89%.

In turn, `Cc1cc(C(=O)N2CCCCC2c2ccccc2Br)c(C)o1` (centres unmarked) [Example 86] displayed a lipophilicity (logP) in data set [1] of 3.96. For the same molecule, the Efficacy in data set [2] is given as 90%; in data set [3] it was 90%; in data set [4] it was 78%.

With `CCc1nn(C)c(F)c1C(=O)N1CCCCC1c1ccccc1Br` (centres unmarked) [Example 87], the logP in data set [1] was found to be 3.25. For the same molecule, the Efficacy was determined as 95% in data set [2], 100% in data set [3] and 89% in data set [4].

Take `CCc1nn(C)c(F)c1C(=O)N1CCCCC1c1ccccc1Cl` (centres unmarked) [Example 37]: the logP in data set [1] worked out at 3.19. In addition, the Efficacy in data set [5] is on record as 70%; in data set [2], 95%; in data set [3], 95%; in data set [4] it was 80%.

With `CCc1nn(C)c(F)c1C(=O)N1CCCCC1c1ccc2ccccc2c1` (centres unmarked) [Example 117], the logP in data set [1] came out at 3.58. The figures for the Efficacy in data set [2], in data set [3] and in data set [4] were 95%, 95% and 90%, respectively.

`Cc1nn(C)c(F)c1C(=O)N1CCCCC1c1ccccc1Cl` (centres unmarked) [Example 36]: the logP in data set [1] turned out to be 2.89. Also, the Efficacy in data set [5] was found to be 89%; in data set [2], 95%; in data set [3], 100%; in data set [4], 80%.

The molecule `Cc1nn(C)c(F)c1C(=O)N1CCCCC1c1ccc(Cl)cc1` (centres unmarked) [Example 51] returned a logP in data set [1] of 2.98. For the same molecule, the Efficacy was found to be 95% in data set [2], 100% in data set [3] and 100% in data set [4].

In the case of `Cc1nn(C)c(F)c1C(=O)N1CCCCC1c1ccc2ccccc2c1` (centres unmarked) [Example 118], the logP in data set [1] is on record as 3.21. Besides, the Efficacy turned out to be 95% in data set [2], 100% in data set [3] and 100% in data set [4].

Regarding `Cc1nn(C)c(F)c1C(=O)N1CCCCC1c1ccc(Cl)cc1Cl` (centres unmarked) [Example 76], the logP in data set [1] came to 3.39. The Efficacy was 90% in data set [2], 100% in data set [3] and 100% in data set [4].

`CCc1nn(C)c(F)c1C(=O)N1CCCCC1c1cccc(Cl)c1` (centres unmarked) [Example 43] yielded a logP in data set [1] of 3.31. Further, the results for the Efficacy in data set [2], in data set [3] and in data set [4] were 95%, 100% and 80%, respectively.

Turning to `Cc1nn(C)c(F)c1C(=O)N1CCCCC1c1cccc(Cl)c1` (centres unmarked) [Example 44], the lipophilicity (logP) in data set [1] was 2.94. Besides, the Efficacy in data set [5] was found to be 89%; in data set [2] it was 95%; in data set [3], 100%; in data set [4] it was 90%.

In data set [1], `Cc1nn(C)c(F)c1C(=O)N1CCCCC1c1cccc(Cl)c1Cl` (centres unmarked) [Example 73] yielded a logP of 3.25. The Efficacy in data set [5] was 85%; in data set [2] it was 95%; in data set [3] it was 100%; in data set [4] it was 80%.

The molecule `Cc1nn(C)c(F)c1C(=O)N1CCCCC1c1cc(Cl)ccc1Cl` (centres unmarked) [Example 83] came in with a logP in data set [1] of 3.29. The Efficacy in data set [5] was 94%; in data set [2] it was 95%; in data set [3] it was 100%; in data set [4] it was 80%.
